Experimental data reported in US4927831A, “Spiro-isoquinoline-pyrrolidine tetrones and analogs thereof useful as aldose reductase inhibitors” (American Home Products, priority 1989, dated 1990).
Where “and” joins values, the source holds several entries; their conditions need not be identical. Equal entries are not always repeated. Where two headings read alike, the source gives them in different places.

Key:
[1] = tested on: dulcitol accumulation in the sciatic nerve; assay: % lowering of dulcitol accumulation in sciatic nerve (N) of galactosemic rats; type: in vivo, Sprague-Dawley; design: key: NS: statistically nonsignificant change; details: 4 days
Description: (§1) The aldose reductase inhibiting property of the compounds of this invention and the utilization of the compounds in preventing, diminishing and alleviating diabetic complications are demonstrable in experiments using galactosemic rats, see Dvornik et al., Science, 182, 1146 (1973). Such experiments are exemplified hereinbelow after the listing of the following general comments pertaining to these experiments:
(§2) (a) Four or more groups of six male rats, 50-70 g, Sprague-Dawley strain, were used. The first group, the control group, was fed a mixture of laboratory chow (rodent Laboratory Chow, Purina) and glucose at 20% (w/w %) concentration. An untreated galactosemic group was fed a similar diet in which galactose was substituted for glucose. The third group was fed a diet prepared by mixing a given amount of the test compound with the galactose containing diet. The concentration of galactose in the diet of the treated groups was the same as that for the untreated galactosemic group.
(§3) (b) After four days, the animals were killed by euthanization. Both the lens and sciatic nerve were removed, weighed and stored frozen for polyol determination.
(§4) (c) The polyol determination was performed by a modification of the procedure of M. Kraml and L. Cosyns, Clin. Biochem., 2,373 (1969). Only two minor reagent changes were made: (a) The rinsing mixture was an aqueous 5% (w/v) trichloroacetic acid solution and (b) the stock solution was prepared by dissolving 25 mg of dulcitol in 100 ml of an aqueous trichloroacetic acid solution. [N.B.: For each experiment the average value found in the tissue from rats fed the glucose diet was subtracted from the individual values found in the corresponding tissue in galactose-fed rats to obtain the amount of polyol accumulated.] The aldose reductase inhibiting effects of the compounds of formula (I) were also tested by employing an in vitro testing procedure similar to that described by S. Hayman and J.H. Kinoshita, J. Biol. Chem., 240,877 (1965). In the present case the procedure of Hayman and Kinoshita was modified in that the final chromatography step was omitted in the preparation of the enzyme from bovine lens.
(§5) The figures under L and N represent the percentage decrease of dulcitol accumulation in the tissues of the lens and sciatic nerve, respectively, for treated rats as compared to untreated rats.

aldose reductase = biological target: T1, aldose reductase (Bos taurus, UniProt P16116); assay: in vitro aldose reductase inhibition (modified Hayman and Kinoshita; enzyme from bovine lens); type: biochemical; details: read-out: % Inhibition IN VITRO; for inhibition at 0.1 µM: 10^-7 M
T1 construct: preparation of the enzyme from bovine lens; from tissue; host or cells: bovine lens
Procedure: Only two minor reagent changes were made: (a) The rinsing mixture was an aqueous 5% (w/v) trichloroacetic acid solution and (b) the stock solution was prepared by dissolving 25 mg of dulcitol in 100 ml of an aqueous trichloroacetic acid solution. [N.B.: For each experiment the average value found in the tissue from rats fed the glucose diet was subtracted from the individual values found in the corresponding tissue in galactose-fed rats to obtain the amount of polyol accumulated.] […] In the present case the procedure of Hayman and Kinoshita was modified in that the final chromatography step was omitted in the preparation of the enzyme from bovine lens. […] The figures under L and N represent the percentage decrease of dulcitol accumulation in the tissues of the lens and sciatic nerve, respectively, for treated rats as compared to untreated rats.

[2] = tested on: dulcitol accumulation in the lens; assay: % lowering of dulcitol accumulation in lens (L) of galactosemic rats; type: in vivo, Sprague-Dawley; design: key: NS: statistically nonsignificant change; details: 4 days
Description: as §1, §2, §3, §4, §5

Structure (SMILES) | % Lowering Dulcitol Accumulation IN VIVO, N (sciatic nerve) ([1]; 1.0 mg/kg in diet) [%] | inhibition at 10 µM (aldose reductase; 10^-5 M) [%] | inhibition at 1 µM (aldose reductase; 10^-6 M) [%] | inhibition at 0.1 µM (aldose reductase) [%] | % Lowering Dulcitol Accumulation IN VIVO, L (lens) ([2]; 1.0 mg/kg in diet) | % Lowering Dulcitol Accumulation IN VIVO, N (sciatic nerve) ([1]; 0.5 mg/kg in diet) | inhibition at 0.04 µM (aldose reductase; 4 × 10^-8 M) [%] | % Lowering Dulcitol Accumulation IN VIVO, L (lens) ([2]; 0.5 mg/kg in diet) | inhibition at 1 µM (aldose reductase) [%] | inhibition at 10 µM (aldose reductase) [%] | also measured
CN1C(=O)c2ccccc2C2(CC(=O)NC2=O)C1=O (centres unmarked) [H H CH3, 2-Methylspiro[isoquinoline-4(1H),3'-pyrrolidine]-1,2',3,5'(2H)-tetrone] | 37.0 | 95 | 91 | 63 | 15.0% |  |  |  |  |  | % Lowering Dulcitol Accumulation IN VIVO, N (sciatic nerve) ([1]; 3.0 mg/kg in diet): 66.0%; % Lowering Dulcitol Accumulation IN VIVO, N (sciatic nerve) ([1]; 10.0 mg/kg in diet): 79.0%; % Lowering Dulcitol Accumulation IN VIVO, N (sciatic nerve) ([1]; 43.0 mg/kg in diet): 89.0%; inhibition at 0.04 µM (aldose reductase): 38%; % Lowering Dulcitol Accumulation IN VIVO, L (lens) ([2]; 3.0 mg/kg in diet): 43.0%; % Lowering Dulcitol Accumulation IN VIVO, L (lens) ([2]; 10.0 mg/kg in diet): 62.0%; % Lowering Dulcitol Accumulation IN VIVO, L (lens) ([2]; 43.0 mg/kg in diet): 86.0%
O=C1CC2(C(=O)N1)C(=O)N(Cc1ccc(Br)cc1F)C(=O)c1cccc(F)c12 (centres unmarked) [[2-[(4-Bromo-2-fluorophenyl)methyl]-5-fluoro]spiro[isoquinoline-4(1H),3'-pyrrolidine]-1,2',3,5'(2H)-tetrone] | 77.0 | 98 | 98 | 92 | 23.9% | 52.5% | 44 | 14.2% |  |  | 
O=C1CC2(C(=O)N1)C(=O)N(Cc1ccc(Br)cc1F)C(=O)c1ccc(Cl)cc12 (centres unmarked) [[2-[(4-Bromo-2-fluorophenyl)methyl]-6-chloro]spiro[isoquinoline-4(1H),3'-pyrrolidine]-1,2',3,5'(2H)-tetrone] |  | 97 | 92 | 55 |  |  | 8 |  |  |  | % Lowering Dulcitol Accumulation IN VIVO, N (sciatic nerve) ([1]; 0.6 mg/kg in diet): 29%; % Lowering Dulcitol Accumulation IN VIVO, L (lens) ([2]; 0.6 mg/kg in diet): 9%
O=C1CC2(C(=O)N1)C(=O)N(Cc1ccc(Br)cc1F)C(=O)c1ccc(F)cc12 (centres unmarked) [[2-[(4-Bromo-2-fluorophenyl)methyl]-6-fluoro]spiro[isoquinoline-4(1H),3'-pyrrolidine]-1,2',3,5'(2H)-tetrone] |  |  |  |  |  | 82.9% and 92.1% |  | NS | 96 | 97 | % Lowering Dulcitol Accumulation IN VIVO, N (sciatic nerve) ([1]; 0.3 mg/kg in diet): 39.7%; % Lowering Dulcitol Accumulation IN VIVO, N (sciatic nerve) ([1]; 0.9 mg/kg in diet): 93.5%; inhibition at 0.04 µM (aldose reductase): 38%; % Lowering Dulcitol Accumulation IN VIVO, L (lens) ([2]; 0.3 mg/kg in diet): NS; % Lowering Dulcitol Accumulation IN VIVO, L (lens) ([2]; 0.9 mg/kg in diet): NS
O=C1CC2(C(=O)N1)C(=O)N(Cc1ccc(Br)cc1F)C(=O)c1cc(Cl)ccc12 (centres unmarked) [[2-[(4-Bromo-2-fluorophenyl)methyl]-7-chloro]spiro[isoquinoline-4(1H),3'-pyrrolidine]-1,2',3,5'(2H)-tetrone] |  |  | 92 | 42 |  |  | 25 |  |  | 96 | % Lowering Dulcitol Accumulation IN VIVO, N (sciatic nerve) ([1]; 0.6 mg/kg in diet): 63%; % Lowering Dulcitol Accumulation IN VIVO, L (lens) ([2]; 0.6 mg/kg in diet): NS
O=C1CC2(C(=O)N1)C(=O)N(Cc1ccc(Br)cc1F)C(=O)c1cc(F)ccc12 (centres unmarked) [[2-[(4-Bromo-2-fluorophenyl)methyl]-7-fluoro]spiro[isoquinoline-4(1H),3'-pyrrolidine]-1,2'3,5'(2H)-tetrone] | 50.2 | 95 |  | 92 | NS | NS | 42 | NS | 93 |  | 
COc1ccc2c(c1)C(=O)N(Cc1ccc(Br)cc1F)C(=O)C21CC(=O)NC1=O (centres unmarked) [[2-[(4-Bromo-2-fluorophenyl)methyl]-7-methoxy]spiro[isoquinoline-4(1H),3'-pyrrolidine]-1,2',3,5'(2H)-tetrone] |  | 97 |  | 90 |  |  | 72 |  | 96 |  | % Lowering Dulcitol Accumulation IN VIVO, N (sciatic nerve) ([1]; 25.7 mg/kg in diet): 88.1%; % Lowering Dulcitol Accumulation IN VIVO, L (lens) ([2]; 25.7 mg/kg in diet): 45.3%
O=C1CC2(C(=O)N1)C(=O)N(Cc1ccc(Br)cc1F)C(=O)c1c(F)cccc12 (centres unmarked) [[2-[(4-Bromo-2-fluorophenyl)methyl]-8-fluoro]spiro[isoquinoline-4(1H),3'-pyrrolidine]-1,2',3,5'(2H)-tetrone] | 57.6 |  |  | 92 | 16.3% | 50.6% | 43 | NS | 94 | 96 | 
COc1cc2c(cc1Br)C1(CC(=O)NC1=O)C(=O)N(Cc1ccc(Br)cc1F)C2=O (centres unmarked) [[6-Bromo-2-[(4-bromo-2-fluorophenyl)methyl]-7-methoxy]spiro[isoquinoline-4(1H),3'-pyrrolidine]-1,2',3,5'(2H)-tetrone] |  | 98 | 97 | 88 |  | 55.2% | 70 | NS |  |  | % Lowering Dulcitol Accumulation IN VIVO, N (sciatic nerve) ([1]; 26.4 mg/kg in diet): 89.5%; % Lowering Dulcitol Accumulation IN VIVO, L (lens) ([2]; 26.4 mg/kg in diet): 48.8%
